Results taken from US7973024B2, “24-sulfoximine vitamin D3 compounds” (Cyctochroma Inc., priority 2002, dated 2011).

What was measured:
Format in all cases: cell-based
[1] = target: T1, CYP24 (Homo sapiens, UniProt Q07973); test: CYP24 enzyme assay (induced HPK1A-ras cells); settings: HPK1A-ras cells induced with 1,25(OH)2D3; [3H]-1,25(OH)2D3 substrate, 2 hour
T1 construct: expressed in transfected cells
T1 sequence (Q07973 36-514): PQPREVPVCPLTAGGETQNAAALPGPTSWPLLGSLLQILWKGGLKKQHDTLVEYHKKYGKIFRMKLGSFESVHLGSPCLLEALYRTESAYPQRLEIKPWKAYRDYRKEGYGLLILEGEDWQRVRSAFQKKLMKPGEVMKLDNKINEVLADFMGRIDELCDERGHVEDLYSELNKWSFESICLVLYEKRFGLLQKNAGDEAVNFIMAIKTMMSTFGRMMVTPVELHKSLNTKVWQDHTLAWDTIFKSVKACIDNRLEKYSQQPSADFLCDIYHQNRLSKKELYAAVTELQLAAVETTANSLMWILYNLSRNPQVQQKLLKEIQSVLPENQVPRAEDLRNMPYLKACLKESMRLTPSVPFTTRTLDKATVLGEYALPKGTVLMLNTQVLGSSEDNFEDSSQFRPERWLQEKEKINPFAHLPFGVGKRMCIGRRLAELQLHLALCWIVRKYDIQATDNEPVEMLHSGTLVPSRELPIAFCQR
Description: 1.25(OH)2D3 10^−5 M (Sigma, St. Louis, Mo.);
Preparation of 10^−5 M working solution is as follows:
Dissolve 1 mg of 1,25(OH)2D3 into 480 μl of isopropanol to make 5×10^−3 M stock solution. Store at −70° C. until needed. Aliquot 1 μl of 1.25(OH)2D3 5×10^−3 M stock solution to 499 μl of isopropanol to make 1.25(OH)2D3 10^−5 working solution. Store at −20° C. until needed. […] Induction of HPKIA-ras cells (The day before assay) • When the HPK1A-ras cells were 80-90% confluent, added 1 μL 10^−5 M 1.25(OH)2D3 to 1 mL medium in the plate (final concentration is 10^−8 M). • 2. Preparation of cell suspension • After 18 to 20 hours induction, removed the medium and washed the cell twice with PBS. Then tripsinized the cells from plate, centrifuged (2,000 rpm, 5 min) and suspended cells pellet in DMEM medium+1% BSA. • Counted the cells and adjusted cells density to 250,000/150 μL, added 150 μL cell suspension to each well in 48-well plate (including 3 wells as a no cell control, and 3 well cells without drug or inhibitor as controls). • 3. […] Kept the plate in 37° C. for 10 min. • 4. Preparation of substrate • For each ml required, added 972 μl of DMEM+1% BSA medium, 20 μl of 3H-1,25(OH)2D3, and 8 μl of 100 nM DPPD to a tube and vortexed. • 5. Incubation • Added 25 μL substrate to each well, incubated the plate at 37° C. for 2 hour. • Added 25 μL substrate to counting plate (2 well) as a total count. • 6. Lipid Extraction and Counting • Added 500 μL methanol to each well to stop the reaction, transferred them to tube. • Added 250 μL dichloromethane and vortex. • Added 250 μL dichloromethane and […] saturated KCI, and vortex. • Centrifuged at 4000 rpm for 5 min. • Transferred 100 μL of aqueous phase (upper phase) to counting plastic counting plate. Added 600 μL of scintillation fluid to each well. Counted the plate in scintillation counter. • 7. Calculation Enzyme Activity • CPM of cell control after subtraction of CPM of non-cell control (NCC) was as 100% enzyme activity.
• Dilution of test compounds • Stock 10^−3 M

[2] = tested on: SCC-25 cells; test: [3H]-thymidine proliferation assay with SCC-25 cells; settings: together with calcitriol, three days, [3H]-thymidine 6 h
Description: 1. Preparation of Cell Suspension • When SCC-25 cells were 70-80% confluent, aspirated media. Washed the cells with 1×PBS. Trypsinized with trypsin-EDTA from the plate, collected cells from the tissue culture flask, centrifuged (500×g, 5 min) and resuspended in media.
2. Cell Plating. • Counted the cells and adjusted the cell density to 10,000/ml. Added 200 μl per well in a 96 well plate. Incubated plate for 24 h at 37° C. in a humidified atmosphere plus 5% CO2. Aspirated used media and replaced with 150 μl per well with media.
3. Compound Addition. • Added 25 μl of 1α,25(OH)2D3 (final concentration 10^−6M, 10^−7 M, 10^−8 M, M, 10^−10 M, 10^−11 M) into each designated well. Added 25 μl of substrate (final concentration 10^−7 M, 5×10^−8 M, 10^−8 M or 10^−9 M) into each designated well. Incubated plates for 3 days at 37° C. in a humidified atmosphere plus 5% CO2.
4. ^3H-Thymidine Incorporation. • Added ^3H-thymidine at 0.02 μCi per well and incubated at 37° C. in a humidified atmosphere plus 5% CO2 for 6 h.
5. Plate Harvesting. • Aspirated all media and washed cells with 1×PBS. Trypsinized cells for 30 min at 37° C. in a humidified atmosphere plus 5% CO2. Harvested cells onto a 96 well filter plate (Millipore) using a Tomtec Cell Harvestor, according to manufacturers instructions.
6. Scintillation Counting. • Added 25 μl of scintillation fluid per well. Counted the plate using a scintillation counter.

[3] = target: T1, CYP24; test: In vitro test of ability to inhibit specifically CYP24 (standard protocol); settings: ketoconazole as control standard

## C=C1/C(=C\C=C2/CCC[C@]3(C)[C@@H]([C@H](C)CCS(=N)(=O)c4ccccc4)CC[C@@H]23)C[C@@H](O)C[C@@H]1O (single isomer, unassigned) [I(a)]
[1]
  IC50: 5 nM
[2]
  inhibition of proliferation of SCC-25 cells: act to inhibit the proliferation

## C=C1/C(=C\C=C2/CCC[C@]3(C)[C@@H]([C@H](C)CCS(=O)(=NC)c4ccccc4)CC[C@@H]23)C[C@@H](O)C[C@@H]1O (single isomer, unassigned) [I(e)]
[1]
  IC50: 66 nM
[2]
  inhibition of proliferation of SCC-25 cells: act to inhibit the proliferation
[3]
  selective inhibition of CYP24: selectively inhibit

## C[C@H](CCS(=N)(=O)c1ccccc1)[C@H]1CC[C@H]2/C(=C/C=C3C[C@@H](O)C[C@H](O)C3)CCC[C@]12C (single isomer, unassigned) [I(i), 24-Phenyl Sulfoximine 19-Nor-Vitamin-D3]
[2]
  inhibition of proliferation of SCC-25 cells: act to inhibit the proliferation
[3]
  selective inhibition of CYP24: selectively inhibit

## C=C1/C(=C\C=C2/CCC[C@]3(C)[C@@H]([C@H](C)CCS(=O)(=NC)c4ccccc4)CC[C@@H]23)C[C@@H](O)C[C@@H]1O (single isomer, unassigned) [I(g)]
[1]
  IC50: 20 nM
[2]
  inhibition of proliferation of SCC-25 cells: act to inhibit the proliferation
[3]
  selective inhibition of CYP24: selectively inhibit
